# In patent US8592421B2, “Cyclic bioisosters of purine system derivatives and a pharmaceutical composition based thereon” (priority 2003, dated 2013):
# Key:
# [1] = test system: thrombocytes; experiment: ADP-induced aggregation of thrombocytes in vitro (Born method, plasma enriched with thrombocytes); type: cell-based, rabbit; conditions: 3-minute incubation, ADP 10^−5 M
# Protocol: The aggregation of thrombocytes was studied by the Born method based on determination of the changes in the optical density of plasma enriched with thrombocytes after its incubation with an aggregation inductor.
# Adenozinediphosphoric acid (ADP) was selected as an aggregation inductor, which in fact is an aggregation generator. Use was made of a sample (registration number 885) of the Sigma Diagnostics Company (USA) in final concentration of 10^−5 M.
# (§1) The experiments were carried out on male rabbits of the “Chinchilla” breed having a mass of 2.7±0.3 kg. 18-24 hours prior to the experiment they were deprived of feed while preserving free access to water.
# (§2) To obtain plasma enriched with thrombocytes, blood was taken from a cut of a marginal vein of the rabbit ear, the sample was stabilized with 3.8% of sodium citrate solution in a ratio of 9:1 and centrifuged at 200 g (1000 rev/min) for 10 minutes. The top supernatant layer enriched with thrombocytes was transferred by an automatic dropper into a silicone test tube and kept at 37° C. The plasma enriched with thrombocytes contained, on the average, […]. If this content exceeded the specified 3×10^8 blood platelets in 1 liter, this sample was diluted to the necessary concentration with plasma deprived of thrombocytes, which was obtained by centrifuging blood at 650 g during 10 minutes.
# (§3) The measurements of the optical density of the samples were made on two-channel aggregometer of the “Chronolog” Company (USA). A flask containing 490 mkl of plasma rich with thrombocytes was placed in a device, into which a magnetic agitator covered with Teflon was lowered. The index of maximum amplitude of aggregation (MA) in percent of a fall of the plasma optical density under effect of the aggregation inductor was recorded. The control index MA of plasma was compared with the MA of plasma incubated for 3 minutes with different concentrations of the compounds: from 10^−3 to 10^−7 in vitro experiments or with plasma obtained 15, 30, 60 and 120 minutes after intravenous administration of different doses of the compounds in vivo experiments.
# (§4) The process of aggregation of thrombocytes was recorded with the help of a computer; on the monitor screen the there were depicted curves reflecting changes of the optical density of the plasma enriched which was taken as a standard 100% compared to the optical density of the non-thrombocyte plasma taken for 0% content of thrombocytes.
# Under in vitro conditions a flask was filled with blood plasma enriched with thrombocytes, to which an aggregation inductor ADP was added at a concentration of 10^−5 M, incubated for 3 minutes, and then the compounds according to the invention were introduced directly into the flask. Their action by aggregation of thrombocytes was studied after 3-minute incubation in a wide range of concentrations from 10^−3 to 10^−7 M to minimum concentration of 10^−7M not inducing no effect of suppressing the aggregation.
# [2] = test system: thrombocytes; experiment: ADP-induced aggregation of thrombocytes after intravenous administration (in vivo); set-up: species or system rabbit
# Protocol: as §1, §2, §3, §4
# The antiaggregative capability of compounds 2, 15, 21, 37, according to the invention was tested in experiments in vivo. Introduced to the test animals intravenously were an aggregation inductor ADP at a concentration of 10^−5 M was and then the compounds according to the invention. The doses of the compounds were in a range from 15 to 60 mg/kg.
# For leveling the different effects of the compounds in different days due the ambient temperature, humidity and other parameters, 2 animals of each series were taken for experiments every day. Under “series” there is understood a group of 6 animals used for studying one of the doses of the compounds.
# The blood for obtaining plasma enriched with thrombocytes was taken from marginal vein of the rabbit ear: in the control group—directly before introducing the tested compounds; in investigated groups—15 minutes after introducing these compounds and then after 30, 60, 120 minutes and so on up to the moment when the effect of suppression of aggregation disappeared.
# The quantity of thrombocytes was counted before the experiment and at the end thereof in each plasma sample.
structure (smiles),measurement,setting,value
"Nc1cnc2c(=O)n([C@@H]3O[C@H](CO)[C@@H](O)[C@H]3O)[nH]c(=O)c2n1.[Na] [Compound 21, sodium salt of 3-amino-7-(β-D-ribofuranosile)pyrazine[2,3-d]-6H-pyridazine-5,8-dione]","MA - fall of optical density of plasma, % to the standard","[1]; 10^−3 M, control 60.8 ± 3.4",47.1 ± 3.0 %
same,"MA - fall of optical density of plasma, % to the standard","[1]; 10^−4 M, control 60.0 ± 2.1",49.2 ± 2.1 %
same,"MA - fall of optical density of plasma, % to the standard","[1]; 10^−5 M, control 52.5 ± 2.1",41.8 ± 2.4 %
same,"MA - drop of optical density, %","[1]; 10^−6 M, control 52.8 ± 1.8",49.6 ± 1.7%
same,"MA - drop of optical density, %","[1]; 10^−7 M, control 51.5 ± 2.1",49.7 ± 2.1%
same,MA - drop of optical density,"[2]; 15.0 mg/kg intravenously, after 15 minutes, control 50.1 ± 1.7",43.5 ± 1.7 %
same,MA - drop of optical density,"[2]; 15.0 mg/kg intravenously, after 30 minutes, control 50.1 ± 1.7",43.3 ± 1.7 %
same,MA - drop of optical density,"[2]; 15.0 mg/kg intravenously, after 60 minutes, control 50.1 ± 1.7",46.7 ± 1.5 %
same,MA - drop of optical density,"[2]; 15.0 mg/kg intravenously, after 120 minutes, control 50.1 ± 1.7",49.1 ± 1.7%
same,MA - drop of optical density,"[2]; 30.0 mg/kg intravenously, after 15 minutes, control 61.0 ± 1.3",46.7 ± 1.9 %
same,MA - drop of optical density,"[2]; 30.0 mg/kg intravenously, after 30 minutes, control 61.0 ± 1.3",45.4 ± 1.8 %
same,MA - drop of optical density,"[2]; 30.0 mg/kg intravenously, after 60 minutes, control 61.0 ± 1.3",45.0 ± 1.9%
same,MA - drop of optical density,"[2]; 30.0 mg/kg intravenously, after 120 minutes, control 61.0 ± 1.3",60.3 ± 2.1%
same,MA - drop of optical density,"[2]; 60.0 mg/kg intravenously, after 15 minutes, control 48.6 ± 1.3",45.1 ± 0.9 %
same,MA - drop of optical density,"[2]; 60.0 mg/kg intravenously, after 30 minutes, control 48.6 ± 1.3",43.2 ± 2.0 %
same,MA - drop of optical density,"[2]; 60.0 mg/kg intravenously, after 60 minutes, control 48.6 ± 1.3",47.3 ± 1.6%
same,MA - drop of optical density,"[2]; 60.0 mg/kg intravenously, after 120 minutes, control 48.6 ± 1.3",48.3 ± 1.5%
